Counter-ions that a name gives are not always drawn.
Columns and labels:
[1] = system: NCI-H292 lung cancer cells; experiment: FDA drug screening, complete media vs cholesterol-free media with simvastatin (TABLE 2); assay type: cell-based, human; conditions: for Cholesterol-free media + simvastatin (0.04 μM) / Complete Media: NCI-H292 cells
[2] = system: NCI-H292 lung cancer cells; experiment: FDA drug screening, complete media vs cholesterol-free media without statin (TABLE 1); assay type: cell-based, human
[3] = cholesterol-free media with simvastatin 0.04 μM, cell growth value in FDA drug screen
[4] = complete media, cell growth value in FDA drug screen
[5] = complete media minus cholesterol-free media + simvastatin, >0 enhanced anti-cancer activity, about 0 neutral, <0 antagonist
[6] = Complete minus Cholesterol-free, greater than 0 enhanced anti-cancer activity, about 0 neutral, below 0 antagonist
[7] = NCI-H292 cells, FDA drug library screen, cholesterol-free media without statin
[8] = NCI-H292 cells, FDA drug library screen, complete media
[9] = cholesterol-free media with simvastatin 0.04 μM, FDA drug library screen (TABLE 2)
[10] = complete media, FDA drug library screen (TABLE 2)
[11] = complete media minus cholesterol-free media + simvastatin (0.04 μM), >0 enhanced anti-cancer activity, about 0 neutral, <0 antagonist
[12] = NCI-H292 cells, cholesterol-free media without statin
[13] = complete vs cholesterol-free media, greater than 0 enhanced anti-cancer activity, about 0 neutral, below 0 antagonists
[14] = Complete minus Cholesterol-free, >0 enhanced anti-cancer activity, about 0 neutral, <0 antagonist
[15] = NCI-H292 cells, cholesterol-free media without statin, FDA drug library screen
[16] = NCI-H292 cells, complete media, FDA drug library screen
[17] = FDA drug library screen, cholesterol-free media with simvastatin 0.04 μM
[18] = FDA drug library screen, complete media
[19] = complete media vs cholesterol-free media + simvastatin (0.04 μM), >0 enhanced anti-cancer activity, about 0 neutral, <0 antagonist
[20] = complete vs cholesterol-free media, >0 enhanced anti-cancer activity, about 0 neutral, <0 antagonist
[21] = FDA library drug in cholesterol-free media with simvastatin 0.04 μM
[22] = FDA library drug in complete media
[23] = Complete minus Cholesterol-free, greater than 0 enhanced anti-cancer activity, about 0 neutral, below 0 antagonists
[24] = NCI-H292 cells in complete media
[25] = drug in cholesterol-free media with simvastatin 0.04 μM

CC12CC3CC(C)(C1)CC(N)(C3)C2 [Memantine (hydrochloride)]
Cholesterol-free media + simvastatin (0.04 μM) [1, 3]: 0.8007 | Complete Media [1, 4]: 0.853 | Difference [1, 5]: 0.05 | Difference [2, 6]: −0.14 | Cholesterol-free [2, 7]: 0.8008 | Complete [2, 8]: 0.656

CN(C)[C@@H](CCOc1cccc2ccccc12)c1ccccc1 [Dapoxetine (hydrochloride)]
Cholesterol-free media + simvastatin (0.04 μM) [1, 9]: 1.079 | Complete Media [1, 10]: 1.031 | Difference [1, 11]: −0.05 | Cholesterol-free [2, 12]: 1.092 | Complete ([2]; NCI-H292 cells, complete media): 0.7794 | Difference [2, 13]: −0.31

CC(C)(C)C(O)/C=C/c1ccc2c(c1)OCO2 (stereo not drawn) [Stiripentol]
Cholesterol-free media + simvastatin (0.04 μM) [1, 9]: 0.9313 | Complete Media [1, 10]: 0.8754 | Difference [1, 11]: −0.06 | Difference [2, 14]: 0.02 | Cholesterol-free [2, 15]: 0.9226 | Complete [2, 16]: 0.9415

COc1cccc(N2CCN(C3=Nc4c(F)cccc4[C@H](CC(=O)O)N3c3cc(C(F)(F)F)ccc3OC)CC2)c1 [Letermovir]
Cholesterol-free media + simvastatin (0.04 μM) [1, 9]: 1.527 | Complete Media [1, 10]: 1.457 | Difference [1, 11]: −0.07 | Cholesterol-free [2, 12]: 1.5 | Complete ([2]; NCI-H292 cells, complete media): 1.08 | Difference [2, 13]: −0.42

Oc1ccc(C=Cc2cc(O)cc(O)c2)cc1 [Resveratrol]
Cholesterol-free media + simvastatin (0.04 μM) [1, 17]: 0.7896 | Complete Media [1, 18]: 0.6933 | Difference [1, 19]: −0.10 | Cholesterol-free [2, 15]: 1.037 | Difference [2, 20]: 0.13

COc1cc(NS(=O)(=O)c2ccc(N)cc2)nc(OC)n1 [Sulfadimethoxine (sodium)]
Cholesterol-free media + simvastatin (0.04 μM) [1, 21]: 1.876 | Complete Media [1, 22]: 1.521 | Difference [1, 19]: −0.35 | Difference [2, 14]: −0.30 | Cholesterol-free [2, 12]: 1.031 | Complete ([2]; NCI-H292 cells, complete media): 0.7288

CC12CCC(CC1=O)C2(C)C (stereo not drawn) [Camphor]
Cholesterol-free media + simvastatin (0.04 μM) [1, 17]: 1.13 | Complete Media [1, 18]: 0.9969 | Difference [1, 19]: −0.13 | Difference [2, 23]: −0.48 | Cholesterol-free ([2]; NCI-H292 cells in cholesterol-free media without statin): 1.372 | Complete [2, 24]: 0.8909

Azatadine (dimaleate)
Cholesterol-free media + simvastatin (0.04 μM) [1, 9]: 1.086 | Complete Media [1, 10]: 1.047 | Difference [1, 11]: −0.04 | Difference [2, 6]: −0.16 | Cholesterol-free [2, 7]: 1.286 | Complete [2, 8]: 1.13

Angiotensin II 5-valine (DRVYVHPF; Angiotensin-2; UniProt P01019 25-32, looked up, variant I5V)
Cholesterol-free media + simvastatin (0.04 μM) [1, 17]: 2.07 | Difference ([1]; complete media minus cholesterol-free media + simvastatin (0.04 μM), […]): −0.98 | Cholesterol-free [2, 15]: 0.8655 | Complete [2, 16]: 1.09 | Difference ([2]; complete vs cholesterol-free media, […]): 0.22

COC(=O)C1=C(C)NC(C)=C(C(=O)OCCN(C)Cc2ccccc2)C1c1cccc([N+](=O)[O-])c1 (stereo not drawn) [Nicardipine (hydrochloride)]
Cholesterol-free media + simvastatin (0.04 μM) [1, 21]: 1.292 | Complete Media [1, 22]: 0.8256 | Difference [1, 19]: −0.47 | Difference [2, 14]: −0.01 | Cholesterol-free [2, 15]: 0.9198 | Complete [2, 16]: 0.9062

CC(C)C[C@H](NC(=O)CNC(=O)c1cc(Cl)ccc1Cl)B(O)O [Ixazomib]
Cholesterol-free media + simvastatin (0.04 μM) [1, 9]: 0.01223 | Complete Media [1, 10]: −0.009398 | Difference [1, 11]: −0.02 | Difference [2, 14]: −0.06 | Cholesterol-free [2, 15]: 0.05045 | Complete [2, 16]: −0.01336

CCN(CC)Cc1cc(Nc2ccnc3cc(Cl)ccc23)ccc1O [Amodiaquine (dihydrochloride)]
Cholesterol-free media + simvastatin (0.04 μM) [1, 21]: 1.766 | Complete Media [1, 22]: 1.059 | Difference [1, 19]: −0.71 | Cholesterol-free [2, 12]: 1.475 | Complete ([2]; NCI-H292 cells, complete media): 1.037 | Difference [2, 13]: −0.44

CC(CCc1ccccc1)NCC(O)c1ccc(O)c(C(N)=O)c1 (stereo not drawn) [Labetalol (hydrochloride)]
Cholesterol-free media + simvastatin (0.04 μM) [1, 9]: 1.147 | Complete Media [1, 10]: 1.128 | Difference [1, 11]: −0.02 | Difference [2, 23]: −0.64 | Complete [2, 24]: 0.9816

O=C(Oc1ccccc1C(=O)O)c1ccccc1O [Salsalate]
Cholesterol-free media + simvastatin (0.04 μM) [1, 3]: 0.8804 | Complete Media [1, 4]: 0.9361 | Difference [1, 5]: 0.06 | Cholesterol-free [2, 12]: 1.58 | Complete ([2]; NCI-H292 cells, complete media): 1.132 | Difference [2, 13]: −0.45

Aliskiren (hemifumarate)
Cholesterol-free media + simvastatin (0.04 μM) [1, 3]: 0.7275 | Complete Media [1, 4]: 0.8337 | Difference [1, 5]: 0.11 | Cholesterol-free [2, 12]: 1.354 | Complete ([2]; NCI-H292 cells, complete media): 0.9547 | Difference [2, 13]: −0.40

O=C[C@H](O)[C@@H](O)[C@H](O)CO [Xylose]
Cholesterol-free media + simvastatin (0.04 μM) [1, 17]: 1.188 | Complete Media [1, 18]: 1.083 | Difference [1, 19]: −0.11 | Cholesterol-free [2, 12]: 1.238 | Complete ([2]; NCI-H292 cells, complete media): 0.9044 | Difference [2, 13]: −0.33

C[C@@H](O)[C@H]1C(=O)N2C(C(=O)O)=C(S[C@@H]3CN[C@H](C(=O)N(C)C)C3)[C@H](C)[C@H]12 [Meropenem (trihydrate)]
Cholesterol-free media + simvastatin (0.04 μM) [1, 9]: 1.099 | Complete Media [1, 10]: 1.05 | Difference [1, 11]: −0.05 | Cholesterol-free [2, 15]: 1.169 | Complete [2, 16]: 1.522 | Difference [2, 20]: 0.35

CCc1nc(N)nc(N)c1-c1ccc(Cl)cc1 [Pyrimethamine]
Cholesterol-free media + simvastatin (0.04 μM) [1, 25]: 1.205 | Complete Media ([1]; drug in complete media): 1.02 | Difference [1, 19]: −0.19 | Cholesterol-free [2, 15]: 1.197 | Complete [2, 16]: 1.426 | Difference [2, 20]: 0.23

C[C@]12CC[C@H](O)CC1=CC[C@@H]1[C@@H]2CC[C@]2(C)C(c3cccnc3)=CC[C@@H]12 [Abiraterone]
Cholesterol-free media + simvastatin (0.04 μM) [1, 21]: 1.907 | Complete Media [1, 22]: 1.473 | Difference [1, 19]: −0.43 | Cholesterol-free [2, 15]: 1.119 | Complete [2, 16]: 1.371 | Difference [2, 20]: 0.25

CCc1ccc(CCOc2ccc(CC3SC(=O)NC3=O)cc2)nc1 (stereo not drawn) [Pioglitazone (hydrochloride)]
Cholesterol-free media + simvastatin (0.04 μM) [1, 25]: 1.247 | Complete Media ([1]; drug in complete media): 1.002 | Difference [1, 19]: −0.25 | Difference [2, 14]: −0.30 | Cholesterol-free [2, 12]: 1.265 | Complete ([2]; NCI-H292 cells, complete media): 0.9669

CN1CCC(=C2c3ccccc3C=Cc3ccccc32)CC1 [Cyproheptadine (hydrochloride)]
Cholesterol-free media + simvastatin (0.04 μM) [1, 17]: 0.6096 | Complete Media [1, 18]: 0.7817 | Difference [1, 5]: 0.17 | Cholesterol-free [2, 15]: 0.9826 | Complete [2, 16]: 1.57 | Difference [2, 20]: 0.59

CC(C(=O)O)c1ccc2c(c1)CC(=O)c1ccccc1S2 (stereo not drawn) [Zaltoprofen]
Cholesterol-free media + simvastatin (0.04 μM) [1, 21]: 1.283 | Complete Media [1, 22]: 0.7256 | Difference [1, 19]: −0.56 | Difference [2, 6]: −0.13 | Cholesterol-free [2, 7]: 1.151 | Complete [2, 8]: 1.025

CO[C@H]1/C=C/O[C@@]2(C)Oc3c(C)c(O)c4c(c3C2=O)C2=NC3(CCN(CC(C)C)CC3)NC2=C(NC(=O)/C(C)=C\C=C\[C@H](C)[C@H](O)[C@@H](C)[C@@H](O)[C@@H](C)[C@H](OC(C)=O)[C@@H]1C)C4=O [Rifabutin]
Cholesterol-free media + simvastatin (0.04 μM) [1, 25]: 1.205 | Complete Media ([1]; drug in complete media): 0.9499 | Difference [1, 19]: −0.26 | Cholesterol-free [2, 15]: 0.7322 | Complete [2, 16]: 0.8211 | Difference [2, 20]: 0.09
